Like-named read-outs stand apart in the source and are kept apart here.

The conditions of data set [1]: ester bond.
For another data set, the system named is B16 4A5 cells. Put plainly: B16 4A5 cell viability, MTS assay. It counts as cell-based, mouse. The conditions noted are these: SDS 0.05%, 72 h, compared to untreated cells. The procedure: B16 4A5 cells were seeded in 24-well plates at 20,000 cells/well, 24 h before the beginning of the treatment with test compounds at 5 concentrations, in triplicates (n=3). […] Additionally, DMSO at 0.1%, used for solubilization of the test compounds, was tested in parallel. The treatments were performed in culture medium containing only 1% of FBS. […] The effects of the compounds on B16 4A5 viability was assessed. To this purpose, cells were incubated during 72 h with 5 concentrations of the compounds, were left untreated, treated with SDS or with DMSO 0.1%.

Another data set addresses SIK (h) / SIK1 (Homo sapiens (Human), UniProt P57059). Put plainly: SIK1 kinase activity, Eurofins KinaseProfiler ([γ-33P]-ATP filter assay). Type of data set: biochemical. The method, then:
(§1) SIK1, 2 and 3 kinase activity was assessed using a Eurofins Cerep S.A. (‘Eurofins’) KinaseProfiler. All compounds were prepared to 50× final assay concentration in 100% DMSO. This working stock of the compound was added to the assay well as the first component in the reaction, followed by the remaining components as detailed in the general assay protocols below. In the standard KinaseProfiler service, there is no pre-incubation step between the compound and the kinase prior to initiation of the reaction. The positive control well contains all components of the reaction, except the compound of interest; however, DMSO (at a final concentration of 2%) is included in these wells to control for solvent effects. The blank wells contain all components of the reaction, with a reference inhibitor replacing the compound of interest. This abolishes kinase activity and establishes the base-line (0% kinase activity remaining).
SIK (h) was incubated with 8 mM MOPS pH 7.0, 0.2 mM EDTA, 100 μM […], 10 mM Magnesium acetate and [γ-33P]-ATP (specific activity and concentration as required). The reaction was initiated by the addition of the Mg/ATP mix. After incubation for 40 minutes at room temperature, the reaction was stopped by the addition of phosphoric acid to a concentration of 0.5%, 10 μL of the reaction was then spotted onto a P30 filtermat and washed four times for 4 minutes in 0.425% phosphoric acid and once in methanol prior to drying and scintillation counting.

For another data set, the target named is SIK2 (h) (Homo sapiens (Human), UniProt Q9H0K1). Put plainly: SIK2 kinase activity, Eurofins KinaseProfiler ([γ-33P]-ATP filter assay). Type of data set: biochemical. The method, then: as §1
SIK2 (h) was incubated with 8 mM MOPS pH 7.0, 0.2 mM EDTA, 100 μM […], 10 mM Magnesium acetate and [γ-33P-ATP](specific activity and concentration as required). The reaction was initiated by the addition of the Mg/ATP mix. After incubation for 40 minutes at room temperature, the reaction was stopped by the addition of phosphoric acid to a concentration of 0.5%, 10 μL of the reaction was then spotted onto a P30 filtermat and washed four times for 4 minutes in 0.425% phosphoric acid and once in methanol prior to drying and scintillation counting.

In another data set the target is SIK3 (h) (Homo sapiens (Human), UniProt Q9Y2K2). The experiment in a line: SIK3 kinase activity, Eurofins KinaseProfiler ([γ-33P]-ATP filter assay). It counts as biochemical. The method, then: as §1
SIK3 (h) was incubated with 8 mM MOPS pH 7.0, 0.2 mM EDTA, 100 μM […], 10 mM Magnesium acetate and [γ-33P-ATP](specific activity and concentration as required). The reaction was initiated by the addition of the Mg/ATP mix. After incubation for 40 minutes at room temperature, the reaction is stopped by the addition of phosphoric acid to a concentration of 0.5%, […] of the reaction was then spotted onto a P30 filtermat and washed four times for 4 minutes in 0.425% phosphoric acid and once in methanol prior to drying and scintillation counting.

The target in the next data set is SIK1 (Homo sapiens (Human), UniProt P57059). The experiment in a line: cell-based.
SIK1, sequence (P57059 whole entry): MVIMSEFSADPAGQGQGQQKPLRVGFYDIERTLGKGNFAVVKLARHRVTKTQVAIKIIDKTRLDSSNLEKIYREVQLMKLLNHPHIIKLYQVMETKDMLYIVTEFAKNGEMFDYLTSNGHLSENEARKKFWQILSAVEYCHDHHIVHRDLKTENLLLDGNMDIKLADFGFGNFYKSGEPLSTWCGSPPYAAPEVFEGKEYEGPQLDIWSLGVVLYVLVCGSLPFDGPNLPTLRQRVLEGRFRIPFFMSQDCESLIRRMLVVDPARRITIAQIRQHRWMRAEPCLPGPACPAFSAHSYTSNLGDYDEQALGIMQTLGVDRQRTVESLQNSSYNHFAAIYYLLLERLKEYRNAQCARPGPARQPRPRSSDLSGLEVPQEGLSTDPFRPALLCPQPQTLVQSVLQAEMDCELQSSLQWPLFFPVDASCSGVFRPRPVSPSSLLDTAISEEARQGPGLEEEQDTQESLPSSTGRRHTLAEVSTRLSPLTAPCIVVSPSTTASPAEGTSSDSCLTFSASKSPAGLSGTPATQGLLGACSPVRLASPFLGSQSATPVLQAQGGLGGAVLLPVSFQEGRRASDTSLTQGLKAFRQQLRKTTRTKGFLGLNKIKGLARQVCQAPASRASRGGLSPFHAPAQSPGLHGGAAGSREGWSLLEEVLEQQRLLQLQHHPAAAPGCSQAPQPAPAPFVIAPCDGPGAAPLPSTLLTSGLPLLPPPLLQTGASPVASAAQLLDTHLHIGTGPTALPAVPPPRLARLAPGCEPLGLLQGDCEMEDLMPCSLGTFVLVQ
Setting [2] is: Table 5, macrocycle precursors, read-out: IC50 nM SIK2.
Where [3] appears, read: Table 6, macrocycles, read-out: IC50 nM SIK2.

On to `COc1cc(F)c2cc1Nc1ncc3c(n1)N(CCCC(=O)OC2)C(=O)N(c1c(C)cccc1C)C3`, for which the ring closure, isolated yield in data set [1] (from COc1cc(F)c(CO)cc1Nc1ncc2c(n1)N(CCCC(=O)O)C(=O)N(c1c(C)cccc1C)C2, 14-membered ring, DCC/DMAP/3A MS, DCM/DMF, 6.89 mM, 25.0 °C, 16.0 h) stood at 57%.

`COc1cc(N2CCN(C)CC2)c2cc1Nc1ncc3c(n1)N(CCCC(=O)OC2)C(=O)N(c1c(C)cccc1C)C3`: the ring closure, isolated yield in data set [1] (from COc1cc(N2CCN(C)CC2)c(CO)cc1Nc1ncc2c(n1)N(CCCC(=O)O)C(=O)N(c1c(C)cccc1C)C2, 14-membered ring, DCC/DMAP/3A MS, DCM/DMF, 6.69 mM, 25.0 °C, 16.0 h) came to 6%.

Turning to `CCCCCCCCCCCCOS(=O)(=O)[O-].[Na+]` [SDS, reference compound], the viability of cells result in the data set with B16 4A5 cells was “strongly and significantly diminished”.

Take `COC(=O)CCCN1C(=O)N(c2c(C)cccc2C)Cc2cnc(Nc3ccc(N4CCN(C)CC4)c(CO)c3)nc21` [SLT-019]: the IC50 (as a rule, the concentration at which inhibition is half-maximal) on SIK (h) / SIK1 (Table 5, macrocycle precursors) was 2 nM; on SIK2 (h) (setting [2]), 3 nM; against SIK3 (h) (Table 5, macrocycle precursors), 8 nM.

`Cc1cccc(C)c1N1Cc2cnc(Nc3ccc(N4CCN(C)CC4)c(CO)c3)nc2N(CCC(=O)O)C1=O` [SLT-020]: the IC50 against SIK (h) / SIK1 (Table 5, macrocycle precursors) turned out to be 5 nM; at SIK2 (h) (setting [2]), 10 nM; at SIK3 (h) (Table 5, macrocycle precursors) it was 43 nM.

With `Cc1cccc(C)c1N1Cc2cnc(Nc3ccc(N4CCN(C)CC4)c(CO)c3)nc2N(CCCC(=O)O)C1=O` [SLT-025], the IC50 against SIK (h) / SIK1 (Table 5, macrocycle precursors) was 3 nM; at SIK2 (h) (setting [2]), 6 nM; at SIK3 (h) (Table 5, macrocycle precursors) it was 21 nM.

`Cc1cccc(C)c1N1Cc2cnc(Nc3ccc(N4CCN(C)CC4)c(CO)c3)nc2N(CCCCC(=O)O)C1=O` [SLT-027]: the IC50 against SIK (h) / SIK1 (Table 5, macrocycle precursors) is 2 nM; on SIK2 (h) (setting [2]) it was 5 nM; on SIK3 (h) (Table 5, macrocycle precursors), 21 nM. Also, the half-maximal effective concentration (EC50) (as a rule, the concentration at which the effect is half-maximal) at SIK1 is 408 nM.

For `Cc1cccc(C)c1N1Cc2cnc3nc2N(CCCCC(=O)OCc2cc(ccc2N2CCN(C)CC2)N3)C1=O` [SLT-033], at SIK1, the EC50 turned out to be 6.08 nM. The compound also came in with a ring closure, isolated yield in data set [1] (from Cc1cccc(C)c1N1Cc2cnc(Nc3ccc(N4CCN(C)CC4)c(CO)c3)nc2N(CCCCC(=O)O)C1=O, 15-membered ring, DCC/DMAP/3A MS, DCM/DMF, 7.69 mM, 25.0 °C) of 14%. Also, the IC50 at SIK2 (h) (setting [3]) was determined as 0.8 nM.

As for `Cc1cccc(C)c1N1Cc2cnc3nc2N(CCCCCOC(=O)c2cc(ccc2N2CCN(C)CC2)N3)C1=O` [SLT-038], a half-maximal response at SIK1 (EC50) required 4.37 nM. This compound had a ring closure, isolated yield in data set [1] (from Cc1cccc(C)c1N1Cc2cnc(Nc3ccc(N4CCN(C)CC4)c(C(=O)O)c3)nc2N(CCCCCO)C1=O, 15-membered ring, 2,4,6-trichlorobenzoyl chloride/TEA, DMAP, toluene/DMF, 5.0 mM, 110.0 °C, 16.0 h) of 6%. In addition, the IC50 at SIK2 (h) (setting [3]) came to 1 nM.

`Cc1cccc(C)c1N1Cc2cnc3nc2N(CCCOC(=O)c2cc(ccc2N2CCN(C)CC2)N3)C1=O` [SLT-041] gave an EC50 at SIK1 of 10.5 nM. Moreover, the ring closure, isolated yield in data set [1] (from Cc1cccc(C)c1N1Cc2cnc(Nc3ccc(N4CCN(C)CC4)c(C(=O)O)c3)nc2N(CCCO)C1=O, 13-membered ring, EDC.HCl/HOBt/DMAP/3A MS, DCM, 7.99 mM, 50.0 °C, 16.0 h) worked out at 30%.

As for `COc1cc(Br)c2cc1Nc1ncc3c(n1)N(CCCC(=O)OC2)C(=O)N(c1c(C)cccc1C)C3` [SLT-058], the IC50 was determined as 26 nM at SIK (h) / SIK1 (Table 6, macrocycles); 201 nM at SIK2 (h) (setting [3]); 339 nM on SIK3 (h) (Table 6, macrocycles). The compound also yielded a ring closure, isolated yield in data set [1] (from COc1cc(Br)c(CO)cc1Nc1ncc2c(n1)N(CCCC(=O)O)C(=O)N(c1c(C)cccc1C)C2, 14-membered ring, DCC/DMAP/3A MS, DCM/DMF, 4.96 mM, 25.0 °C, 16.0 h) of 20%.

As for `Cc1cccc(C)c1N1Cc2cnc3nc2N(CCCCOC(=O)Cc2cc(ccc2N2CCN(C)CC2)N3)C1=O` [SLT-059], the IC50 is 286 nM at SIK (h) / SIK1 (Table 6, macrocycles); over 500 nM at SIK2 (h); 250 nM at SIK2 (h) (setting [3]). The compound further displayed a ring closure, isolated yield in data set [1] (from Cc1cccc(C)c1N1Cc2cnc(Nc3ccc(N4CCN(C)CC4)c(CC(=O)O)c3)nc2N(CCCCO)C1=O, 15-membered ring, 2,4,6-trichlorobenzoyl chloride/TEA, DMAP, toluene/DMF, 5.0 mM, 110.0 °C, 16.0 h) of 13%.

In the case of `Cc1cccc(C)c1N1Cc2cnc3nc2N(C/C=C/CC(=O)OCc2cc(ccc2N2CCN(C)CC2)N3)C1=O` [SLT-061], the IC50 on SIK2 (h) (setting [3]) turned out to be 2 nM.

At SIK2 (h), `Cc1cccc(C)c1N1Cc2cnc3nc2N(C/C=C\CC(=O)OCc2cc(ccc2N2CCN(C)CC2)N3)C1=O` [SLT-062] gave an IC50 of 0.8 nM.

Consider `Cc1cccc(C)c1N1Cc2cnc3nc2N(C/C=C/COC(=O)Cc2cc(ccc2N2CCN(C)CC2)N3)C1=O` [SLT-068], for which, at SIK2 (h) (setting [3]), the IC50 was determined as 17 nM.

Take `Cc1cccc(C)c1N1Cc2cnc3nc2N(CCCCOC(=O)C(C)c2cc(ccc2N2CCN(C)CC2)N3)C1=O` (stereo not drawn) [SLT-070]: at SIK2 (h) (setting [3]), the IC50 was determined as 2 nM.

Turning to `Cc1cccc(C)c1N1Cc2cnc3nc2N(CCCOC(=O)C(C)c2cc(ccc2N2CCN(C)CC2)N3)C1=O` (stereo not drawn) [SLT-071], at SIK2 (h) (setting [3]), the IC50 came out at 3 nM.

For the compound `Cc1cccc(C)c1N1Cc2cnc3nc2N(C/C=C\C(=O)OCc2cc(ccc2N2CCN(C)CC2)N3)C1=O` [SLT-073], 0.7 nM corresponded to half-maximal inhibition on SIK2 (h) (IC50).

On to `Cc1cccc(C)c1N1Cc2cnc3nc2N(C/C=C/CCOC(=O)c2cc(ccc2N2CCN(C)CC2)N3)C1=O` [SLT-079], for which the IC50 at SIK2 (h) (setting [3]) is 1 nM.

The values above are taken from US20250340556A1, “PYRIMIDOPYRIMIDONE COMPOUNDS AND METHODS OF USE THEREOF” (Soltego, Inc., priority 2022, published 2025).
